From patent US4818753A, “Synthesis and method of use for 2, 4 diaminoquinazoline” (SRI International, priority 1987, dated 1989)
In brackets after ≈: the same amount, converted by molar mass. Read-outs that look alike come from different tables or passages of the source.

Key:
Candida = experiment: Growth of Candida cultures with compound and/or SMX (FIG. 1); format: cell-based; conditions: SMX alone (100 ug)
Candida albicans (10231) = experiment: Broth dilution assay, F1; format: cell-based
Experimental: (§1) Both broth dilution and agar dilution assays were used to assess the antifungal activity of the compounds of the invention. The cultures were maintained in Sabouraud dextrose broth (SDB) and diluted with […]. 2.5 l of SDB was prepared and distributed into sterile vessels as follows: 49 ml into 1 vessel, 27 ml into 3 vessels, 45 ml into 2 vessels.
(§2) Five mg/ml concentration of each compound was prepared using DMSO as the solvent; warming and sonication were necessary to dissolve each compound completely. The compounds were then diluted in SDB according to the following protocol:
(§3) 5. 1 ug/ml--5 ml (3)+45 ml SDB
(§4) The compound at each concentration in SDB was then dispensed into 6 tubes each containing 4 ml […]. Controls (without any compound) were also prepared to insure that the solvent itself was not fungicidal or fungistatic.
(§5) Cultures were grown in SDB for 24 h at 30° C. C. albicans and C. neoformans were diluted 1:10 in SDB before inoculation. Inoculation volume for yeasts was 2 drops of diluted cells per tube. The fungal cultures were homogenized before inoculation. The same volume was added, but without dilution. All tubes were incubated at room temperature on a rotating wheel. After 16 h of incubation at room temperature, the fungistatic assay was set up on agar plates. […] Yeasts were inoculated onto SDA (the corresponding agar) plates and fungi onto mycosel agar plates. These plates were then incubated at room temperature.

Candida albicans (14053) = experiment: Broth dilution assay, F2; format: cell-based
Experimental: as §1, §2, §3, §4, §5

[1] = test system: Cryptococcus neoformans (13690); experiment: Broth dilution assay, F3; format: cell-based
Experimental: as §1, §2, §3, §4, §5

[2] = test system: Epidermophyton floccosum (15693); experiment: Broth dilution assay, F4; format: cell-based
Experimental: as §1, §2, §3, §4, §5

[3] = test system: Trichophyton mentagrophytes (11481); experiment: Broth dilution assay, F6; format: cell-based
Experimental: as §1, §2, §3, §4, §5

[4] = test system: Microsporum gypseum (14683); experiment: Broth dilution assay, F12; format: cell-based; conditions: Nannizzia gypsea
Experimental: as §1, §2, §3, §4, §5

[5] = test system: Penicillium citrinum (9849); experiment: Broth dilution assay, F19; format: cell-based; conditions: for MIC: Table 1, F19, Sabouraud Dextrose Broth pH 5.5, read-out: Minimum Inhibitory Concentration (S, fungistatic)
Experimental: as §1, §2, §3, §4, §5

Cryptococcus neoformans [6] = conditions: Hariri 1976, cited from earlier work
Cryptococcus neoformans [7] = conditions: Hariri 1976; cited from earlier work
Plasmodium species = conditions: Hariri 1976; cited from earlier work
Candida species = conditions: with SMX, against Candida; Castaldo 1979; cited from earlier work
[8] = pH 5.5, read-out: Minimum Inhibitory Concentration (S, fungistatic)
[9] = pH 5.5, read-out: Minimum Lethal Concentration (C, fungicidal)
[10] = pH 5.5, read-out: S Fungistatic
[11] = Table 1, F4, Sabouraud Dextrose Broth pH 5.5, read-out: Minimum Inhibitory Concentration (S, fungistatic)
[12] = Table 2, F4, Sabouraud Dextrose Broth pH 5.5, read-out: C Fungicidal
[13] = Table 2, F4, Sabouraud Dextrose Broth pH 5.5, read-out: S Fungistatic
[14] = Table 1, F6, Sabouraud Dextrose Broth pH 5.5, read-out: Minimum Inhibitory Concentration (S, fungistatic)
[15] = Table 2, F6, Sabouraud Dextrose Broth pH 5.5, read-out: C Fungicidal
[16] = Table 2, F6, Sabouraud Dextrose Broth pH 5.5, read-out: S Fungistatic
[17] = Table 1, Sabouraud Dextrose Broth pH 5.5, read-out: Minimum Inhibitory Concentration (S, fungistatic)
[18] = Table 2, Sabouraud Dextrose Broth pH 5.5, read-out: C Fungicidal
[19] = Table 2, Sabouraud Dextrose Broth pH 5.5, read-out: S Fungistatic
[20] = Table 1, F1, Sabouraud Dextrose Broth pH 5.5, read-out: Minimum Inhibitory Concentration (S, fungistatic)
[21] = Table 1, F1, Sabouraud Dextrose Broth pH 5.5, read-out: Minimum Lethal Concentration (C, fungicidal)
[22] = Table 1, F2, Sabouraud Dextrose Broth pH 5.5, read-out: Minimum Inhibitory Concentration (S, fungistatic)
[23] = Table 1, F2, Sabouraud Dextrose Broth pH 5.5, read-out: Minimum Lethal Concentration (C, fungicidal)
[24] = Table 1, F3, Sabouraud Dextrose Broth pH 5.5, read-out: Minimum Inhibitory Concentration (S, fungistatic)
[25] = Table 1, F3, Sabouraud Dextrose Broth pH 5.5, read-out: Minimum Lethal Concentration (C, fungicidal)
[26] = Table 1, F4, Sabouraud Dextrose Broth pH 5.5, read-out: Minimum Lethal Concentration (C, fungicidal)
[27] = Table 1, F6, Sabouraud Dextrose Broth pH 5.5, read-out: Minimum Lethal Concentration (C, fungicidal)
[28] = Table 1, Sabouraud Dextrose Broth pH 5.5, read-out: Minimum Lethal Concentration (C, fungicidal)
[29] = Table 1, F19, Sabouraud Dextrose Broth pH 5.5, read-out: Minimum Lethal Concentration (C, fungicidal)

MIC [2, 11] [µg/mL] | MIC [3, 14] [µg/mL] | MIC [4, 17] [µg/mL] | MIC [5] [µg/mL] | MIC (Candida albicans (10231); [20]) [µg/mL] | MIC (Candida albicans (14053); [22]) [µg/mL] | MIC [1, 24] [µg/mL] | Structure (SMILES) | MFC (Candida albicans (10231); [21]) [µg/mL] | MFC (Candida albicans (14053); [23]) [µg/mL] | MFC [1, 25] [µg/mL] | MFC [2, 26] [µg/mL] | MFC [3, 27] [µg/mL] | MFC [4, 28] [µg/mL] | MFC [5, 29] [µg/mL] | other results
 |  |  |  |  |  |  | Cc1cc(NS(=O)(=O)c2ccc(N)cc2)no1 [SMX, sulfamethoxazole, reference compound] |  |  |  |  |  |  |  | cfu/ml over a 36-h period (Candida): approximately 10^8 cfu/ml
30 (≈ 139 µM) | > 30 | > 30 | > 100 | > 100 | > 100 | > 100 | CCCc1ccc2nc(N)nc(N)c2c1C [--CH2 CH2 CH3] | > 100 | > 100 | > 100 | > 30 | > 30 | > 30 | > 100 | 
 |  |  |  |  |  |  | Nc1nc(N)c2cc(NC(=O)Cc3ccc(Cl)c(Cl)c3)ccc2n1 [2,4-diamino-6-(2-(3,4-dichlorophenyl)acetamido)quinazoline] |  |  |  |  |  |  |  | minimum inhibitory concentration (MIC) (Cryptococcus neoformans [6]; C. neoformans): 6 to 8 µg/mL; in vitro activity (Cryptococcus neoformans [6]; in vitro): active in vitro and in vivo; in vivo activity (Cryptococcus neoformans [7]): active in vitro and in vivo; activity against Plasmodium (Plasmodium species): no activity
10 (≈ 43.4 µM) | > 30 | 30 (≈ 130 µM) | 100 (≈ 434 µM) | 100 (≈ 434 µM) | 100 (≈ 434 µM) | 30 (≈ 130 µM) | CCCCc1ccc2nc(N)nc(N)c2c1C [--CH2 (CH2)2 CH3] | > 100 | 100 (≈ 434 µM) | 30 (≈ 130 µM) | 30 (≈ 130 µM) | > 30 | > 30 | > 100 | 
 |  |  |  |  |  |  | Nc1nc(N)c2c(ccc3c2ccn3CC2CC2)n1 [N-cyclopropylmethyl-5,6-pyrrolo-2,4-diaminoquinazoline] |  |  |  |  |  |  |  | synergistic activity in presence of sulfamethoxazole (SMX) (Candida species): synergistic activity
≤ 0.1 | ≤ 0.1 | ≤ 0.1 | ≤ 0.3 | > 100 | > 100 | > 100 | Cc1cccc(N(C)C(=S)Oc2ccc3ccccc3c2)c1 [Tolnaftate, reference compound] | > 100 | > 100 | > 100 | 10 (≈ 32.5 µM) | 3 (≈ 9.76 µM) | 10 (≈ 32.5 µM) | 30 (≈ 97.6 µM) | MFC (Candida albicans (10231); Table 2, F1, Sabouraud Dextrose Broth pH 5.5, read-out: C Fungicidal): > 100 µg/mL; MIC (Candida albicans (10231); Table 2, F1, Sabouraud Dextrose Broth pH 5.5, read-out: S Fungistatic): > 100 µg/mL; MFC ([1]; Table 2, F3, Sabouraud Dextrose Broth pH 5.5, read-out: C Fungicidal): > 100 µg/mL; MIC ([1]; Table 2, F3, Sabouraud Dextrose Broth pH 5.5, read-out: S Fungistatic): > 100 µg/mL; MFC [2, 12]: ≤ 0.3 µg/mL; MIC [2, 13]: ≤ 0.3 µg/mL; MFC [3, 15]: > 100 µg/mL; MIC [3, 16]: ≤ 0.3 µg/mL; MFC [4, 18]: 30 µg/mL (≈ 97.6 µM); MIC [4, 19]: ≤ 0.3 µg/mL

Structure (SMILES) | MIC [2, 11] [µg/mL] | MIC [3, 14] [µg/mL] | MIC [4, 17] [µg/mL] | MIC [5] [µg/mL] | MIC (Candida albicans (10231); [20]) [µg/mL] | MIC (Candida albicans (14053); [22]) [µg/mL] | MIC [1, 24] [µg/mL] | MFC (Candida albicans (10231); [21]) [µg/mL] | MFC (Candida albicans (14053); [23]) [µg/mL] | MFC [1, 25] [µg/mL] | MFC [2, 26] [µg/mL] | MFC [3, 27] [µg/mL] | MFC [4, 28] [µg/mL] | MFC [5, 29] [µg/mL] | other results
Clc1ccc(COC(Cn2ccnc2)c2ccc(Cl)cc2Cl)c(Cl)c1 (stereo not drawn) [Miconazole, reference compound] | ≤ 0.1 | 1 (≈ 2.4 µM) | 3 (≈ 7.21 µM) | ≤ 0.1 |  |  |  |  |  |  |  |  |  |  | MFC (Candida albicans (10231); pH 5.5, read-out: C Fungicidal): 100 µg/mL (≈ 240 µM); MIC (Candida albicans (10231); [8]): 10 µg/mL (≈ 24 µM); MFC (Candida albicans (10231); [9]): 30 µg/mL (≈ 72.1 µM); MIC (Candida albicans (10231); [10]): 10 µg/mL (≈ 24 µM); MIC (Candida albicans (14053); [8]): 30 µg/mL (≈ 72.1 µM); MFC (Candida albicans (14053); [9]): 30 µg/mL (≈ 72.1 µM); MFC ([1]; pH 5.5, read-out: C Fungicidal): 10 µg/mL (≈ 24 µM); MIC [1, 8]: ≤ 0.1 µg/mL; MFC [1, 9]: 10 µg/mL (≈ 24 µM); MIC [1, 10]: ≤ 0.3 µg/mL; MFC [2, 12]: ≤ 0.3 µg/mL; MIC [2, 13]: ≤ 0.3 µg/mL; MFC [2, 9]: 1 µg/mL (≈ 2.4 µM); MFC [3, 15]: 10 µg/mL (≈ 24 µM); MIC [3, 16]: ≤ 0.3 µg/mL; MFC [3, 9]: 30 µg/mL (≈ 72.1 µM); MFC [4, 18]: 30 µg/mL (≈ 72.1 µM); MIC [4, 19]: 1 µg/mL (≈ 2.4 µM); MFC [5, 9]: 30 µg/mL (≈ 72.1 µM)
